Measurements from patent publication US20230210999A1, “TARGETED PROTEASE DEGRADATION (TED) PLATFORM” (EUBULUS BIOTHERAPEUTICS INC., priority 2020, published 2023).
Read-outs that look alike come from different tables or passages of the source.

How the values were obtained:
Format in all cases: cell-based, human
MV4;11 cells = assay: Cell proliferation experiment (Alamar blue, 72 h), MV4;11; details: Homo sapiens
Method: (§1) Reagents: RPMI-1640 medium, McCoy's 5A medium, IMDM medium, MEM medium, L-15 medium, fetal bovine serum. Penicillin-Streptomycin double antibody, trypsin, etc., 2-mercaptoethanol, NEAA, pyruvate, etc.
(§2) The cells were cultured in conventional ways, and the cells should be passed at least 2 generations before plating. Cells at the logarithmic growth phase were collected, prepared into single cell suspensions and counted. The concentration of cells was adjusted to the desired concentration, and cells were inoculated into a 96-well cell culture plate at 100 μl per well. 100 μL of complete medium of the test compound were added to each well, set up 2 duplicate wells for each concentration, and diluted with a 5-fold gradient, and continued to culture for 72 h. All cells were subjected to IC50 test for corresponding samples. The experimental results are shown in Test Example 4.
(§3) The fluorescence intensity of each well was detected using the Alarm blue method, and IC50 was calculated.
(§4) IC50 was calculated according to the following formula:
(§5) Y=Max+(Min−Max)/[1+(X/IC50)×Slope]
(§6) wherein Min, Max and Slope represent the minimum, maximum and slope respectively.

Daudi cells = assay: Cell proliferation experiment, Daudi; details: Homo sapiens, Daudi, Daudi cells; read-out: Inhibitory activity IC50 on Daudi
Method: as §1, §2, §3, §4, §5, §6

NCIH82 cells = assay: Cell proliferation experiment, NCI-H82; details: Homo sapiens, NCI-H82, NCI-H82 cells; read-out: Inhibitory activity IC50 on NCI-H82
Method: as §1, §2, §3, §4, §5, §6

[1] = MV4-11, MV4;11 cells, read-out: Inhibitory activity IC50 on MV4;11

Row | IC50 (MV4;11 cells; MV4-11, 72 h, MV4;11 cells, 72 h, read-out: Inhibitory activity IC50 of tested compounds on MV4;11 cells) | IC50 (Daudi cells) | IC50 (MV4;11 cells; [1]) | IC50 (NCIH82 cells) | SMILES
1 | > 1000 nM | – | – | – | O=C1CCC(N2Cc3c(C#CCNCCOCCOCCOCCNC(=O)[C@H]4CC[C@H](Oc5cccc(Cl)c5F)CC4Cc4cccc(Nc5nccs5)n4)cccc3C2=O)C(=O)N1 (some centres unmarked) [Compound 860]
2 | – | 10 to 100 nM | 10 to 100 nM | – | CC[C@@H]1C(=O)N(C)c2cnc(Nc3ccc(-c4cn(CCCOCCCNCCC#Cc5cccc6c5CN(C5CCC(=O)NC5=O)C6=O)nn4)cc3OC)nc2N1C1CCCC1 (some centres unmarked) [UB-180938]
3 | – | > 1000 nM | 100 to 1000 nM | > 1000 nM | O=C1CCC(N2Cc3c(C#CCCNCCOCCn4cc(-c5ccc(Nc6ncc7c(n6)-c6ccc(Cl)cc6C(c6c(F)cccc6F)=NC7)cc5)nn4)cccc3C2=O)C(=O)N1 (centres unmarked) [UB-180944]
4 | – | > 1000 nM | 100 to 1000 nM | > 1000 nM | O=C1CCC(N2Cc3c(NC(=O)CNCCOCCN4CCC(n5cc(-c6ccc(Nc7ncc8c(n7)-c7ccc(Cl)cc7C(c7c(F)cccc7F)=NC8)cc6)nn5)CC4)cccc3C2=O)C(=O)N1 (centres unmarked) [UB-180945]
5 | – | > 1000 nM | 100 to 1000 nM | 100 to 1000 nM | O=C1CCC(N2Cc3c(C#CCCNCCCOCCCn4cc(-c5ccc(Nc6ncc7c(n6)-c6ccc(Cl)cc6C(c6c(F)cccc6F)=NC7)cc5)nn4)cccc3C2=O)C(=O)N1 (centres unmarked) [UB-180946]
6 | – | 100 to 1000 nM | 10 to 100 nM | > 1000 nM | O=C1CCC(N2Cc3cc(NC(=O)CCOCCOCCOCCNC(=O)c4ccc(Nc5ncc6c(n5)-c5ccc(Cl)cc5C(c5c(F)cccc5F)=NC6)cc4)ccc3C2=O)C(=O)N1 (centres unmarked) [UB-180947]
7 | – | > 1000 nM | 100 to 1000 nM | 100 to 1000 nM | CCNC(=O)C#Cc1ccc2c(c1)NC(=O)/C2=C(\Nc1ccc(CNCCOCCOCCC(=O)N[C@H](C(=O)N2C[C@H](O)C[C@H]2C(=O)NCc2ccc(-c3scnc3C)cc2)C(C)(C)C)cc1)c1ccccc1 [UB-180951]
8 | – | > 1000 nM | > 1000 nM | > 1000 nM | CCNC(=O)C=C(Cl)c1ccc2c(c1)NC(=O)/C2=C(\Nc1ccc(CNCCOCCOCCOCCOCCC(=O)Nc2cccc3c2CN(C2CCC(=O)NC2=O)C3=O)cc1)c1ccccc1 (centres unmarked) [UB-180952]
9 | – | > 1000 nM | 100 to 1000 nM | > 1000 nM | O=C1CCC(N2Cc3cc(NC(=O)CNCCOCCOCCOCCNC(=O)[C@]4(Cc5cccc(Nc6nccs6)n5)CC[C@@H](Oc5cccc(Cl)c5F)CC4)ccc3C2=O)C(=O)N1 (some centres unmarked) [UB-180953]
10 | – | > 1000 nM | 100 to 1000 nM | > 1000 nM | O=C1CCC(N2Cc3cc(NC(=O)CNCCOCCOCCOCCNC(=O)c4ccc(Nc5ncc6c(n5)-c5ccc(Cl)cc5C(c5c(F)cccc5F)=NC6)cc4)ccc3C2=O)C(=O)N1 (centres unmarked) [UB-180954]
11 | – | > 1000 nM | 100 to 1000 nM | > 1000 nM | CCNC(=O)C#Cc1ccc2c(c1)NC(=O)/C2=C(\Nc1ccc(CNCCOCCOCCOCCOCCC(=O)N[C@H](C(=O)N2C[C@H](O)C[C@H]2C(=O)NCc2ccc(-c3scnc3C)cc2)C(C)(C)C)cc1)c1ccccc1 [UB-180955]
12 | – | > 1000 nM | 100 to 1000 nM | > 1000 nM | CCNC(=O)C#Cc1ccc2c(c1)NC(=O)/C2=C(\Nc1ccc(CNCCOCCOCCOCCOCCC(=O)Nc2cccc3c2CN(C2CCC(=O)NC2=O)C3=O)cc1)c1ccccc1 (centres unmarked) [UB-180956]
13 | – | > 1000 nM | 100 to 1000 nM | > 1000 nM | CCNC(=O)C#Cc1ccc2c(c1)NC(=O)/C2=C(\Nc1ccc(CNCCOCCOCCOCCOCC(=O)N[C@H](C(=O)N2C[C@H](O)C[C@H]2C(=O)NCc2ccc(-c3scnc3C)cc2)C(C)(C)C)cc1)c1ccccc1 [UB-180958]
14 | – | > 1000 nM | 100 to 1000 nM | > 1000 nM | O=C1CCC(N2Cc3c(NC(=O)CCOCCOCCN[C@H]4CC[C@@H](NC(=O)c5ccc(Nc6ncc7c(n6)-c6ccc(Cl)cc6C(c6c(F)cccc6F)=NC7)cc5)CC4)cccc3C2=O)C(=O)N1 (some centres unmarked) [UB-180959]
15 | – | > 1000 nM | 100 to 1000 nM | > 1000 nM | O=C1CCC(N2Cc3cc(NC(=O)CCOCCOCCN[C@H]4CC[C@@H](NC(=O)c5ccc(Nc6ncc7c(n6)-c6ccc(Cl)cc6C(c6c(F)cccc6F)=NC7)cc5)CC4)ccc3C2=O)C(=O)N1 (some centres unmarked) [UB-180960]
16 | – | > 1000 nM | 100 to 1000 nM | > 1000 nM | CCNC(=O)C#Cc1ccc2c(c1)NC(=O)/C2=C(\Nc1ccc(CNCCOCCOCCOCCOCC(=O)Nc2cccc3c2CN(C2CCC(=O)NC2=O)C3=O)cc1)c1ccccc1 (centres unmarked) [UB-180962]
17 | – | > 1000 nM | 10 to 100 nM | > 1000 nM | CCNC(=O)C#Cc1ccc2c(c1)NC(=O)/C2=C(\Nc1ccc(CNCCOCCOCCOCCOCC(=O)Nc2ccc3c(c2)CN(C2CCC(=O)NC2=O)C3=O)cc1)c1ccccc1 (centres unmarked) [UB-180963]
18 | – | > 1000 nM | 100 to 1000 nM | > 1000 nM | CCNC(=O)C#Cc1ccc2c(c1)NC(=O)/C2=C(\Nc1ccc(CNCCOCCOCCC(=O)Nc2cccc3c2CN(C2CCC(=O)NC2=O)C3=O)cc1)c1ccccc1 (centres unmarked) [UB-180964]
19 | – | > 1000 nM | 100 to 1000 nM | 100 to 1000 nM | O=C1CCC(N2Cc3cc(C#CCCNCCOCCOCCOCCn4cc(-c5ccc(Nc6ncc7c(n6)-c6ccc(Cl)cc6C(c6c(F)cccc6F)=NC7)cc5)nn4)ccc3C2=O)C(=O)N1 (centres unmarked) [UB-180965]
20 | – | > 1000 nM | > 1000 nM | > 1000 nM | O=C1CCC(N2Cc3c(C#CCCOCCN[C@H]4CC[C@@H](n5cc(-c6ccc(Nc7ncc8c(n7)-c7ccc(Cl)cc7C(c7c(F)cccc7F)=NC8)cc6)nn5)CC4)cccc3C2=O)C(=O)N1 (some centres unmarked) [UB-180966]
21 | – | 100 to 1000 nM | 100 to 1000 nM | > 1000 nM | CCNC(=O)C#Cc1ccc2c(c1)NC(=O)/C2=C(\Nc1ccc(CNCCOCCOCCC(=O)Nc2ccc3c(c2)CN(C2CCC(=O)NC2=O)C3=O)cc1)c1ccccc1 (centres unmarked) [UB-180967]
22 | – | 100 to 1000 nM | < 10 nM | – | CC[C@@H]1C(=O)N(C)c2cnc(Nc3ccc(-c4nnc(C5CCC(NCCOCCC#Cc6cccc7c6CN(C6CCC(=O)NC6=O)C7=O)CC5)o4)cc3OC)nc2N1C1CCCC1 (some centres unmarked) [UB-180968]
23 | – | 100 to 1000 nM | 10 to 100 nM | – | CC[C@@H]1C(=O)N(C)c2cnc(Nc3ccc(-c4cn(CCOCCOC[C@@H](N)CC#Cc5cccc6c5CN(C5CCC(=O)NC5=O)C6=O)nn4)cc3OC)nc2N1C1CCCC1 (some centres unmarked) [UB-180969]
24 | – | 10 to 100 nM | < 10 nM | – | CC[C@@H]1C(=O)N(C)c2cnc(Nc3ccc(-c4cn([C@H]5CC[C@@H](NCCCCCC#Cc6ccc7c(c6)CN(C6CCC(=O)NC6=O)C7=O)CC5)nn4)cc3OC)nc2N1C1CCCC1 (some centres unmarked) [UB-180984]
25 | – | < 10 nM | < 10 nM | – | CC[C@@H]1C(=O)N(C)c2cnc(Nc3ccc(C(=O)N[C@H]4CC[C@@H](NCCCCCC#Cc5ccc6c(c5)CN(C5CCC(=O)NC5=O)C6=O)CC4)cc3OC)nc2N1C1CCCC1 (some centres unmarked) [UB-180985]
26 | – | 100 to 1000 nM | – | 100 to 1000 nM | NC(=O)c1ccccc1Nc1nc(Nc2ccc(C3CCN(C(=O)NCCCCNCCC#Cc4ccc5c(c4)CN(C4CCC(=O)NC4=O)C5=O)CC3)cc2)ncc1Cl (centres unmarked) [UB-181206]
27 | – | > 1000 nM | – | > 1000 nM | NC(=O)c1ccccc1Nc1nc(Nc2ccc(C3CCN(C(=O)NCCCNCCCC#Cc4ccc5c(c4)CN(C4CCC(=O)NC4=O)C5=O)CC3)cc2)ncc1Cl (centres unmarked) [UB-181207]
28 | – | 10 to 100 nM | – | 100 to 1000 nM | NC(=O)c1ccccc1Nc1nc(Nc2ccc(N3CCN(C(=O)NCCCCNCCC#Cc4ccc5c(c4)CN(C4CCC(=O)NC4=O)C5=O)CC3)cc2)ncc1Cl (centres unmarked) [UB-181208]

Row | SMILES | IC50 (MV4;11 cells; MV4-11, 72 h, MV4;11 cells, 72 h, read-out: Inhibitory activity IC50 of tested compounds on MV4;11 cells) | IC50 (Daudi cells) | IC50 (MV4;11 cells; [1]) | IC50 (NCIH82 cells)
29 | O=C1CCC(N2Cc3cc(NC(=O)CCOCCOCCOCCNC(=O)[C@]4(Cc5cccc(Nc6nccs6)n5)CC[C@@H](Oc5cccc(Cl)c5F)CC4)ccc3C2=O)C(=O)N1 (some centres unmarked) [UB-180948] | – | > 1000 nM | 10 to 100 nM | > 1000 nM
